Common to all, as to format: biochemical
One test addresses Human Axl (Homo sapiens (Human), UniProt P30530, Q764R). In words: Human AXL kinase assay (33P radiometric, KinaseProfiler). The note with it: 10 μM ATP. The method, then:
(§1) Kinase activity and compound inhibition were investigated using the ^33P-Phosphoryl transfer radiometric kinase assay, performed using the KinaseProfiler™ service of Eurofins Pharma Discovery Services UK Limited. Dose-response experiments were performed using nine compound concentrations in a 96-well microtiter plate. For each assay, all compounds were prepared to a 50× final assay concentration (50 μM) in 100% DMSO, then diluted in a half-log series, with the final top concentration at 1 μM. This working stock of the compound was added to the assay well as the first component in the reaction, followed by the remaining components as detailed in the following assay protocols below. The positive control wells (100% kinase activity) contain all components of the reaction including 2% DMSO (control for solvent effects), except the compound of interest. Blank wells contain all components of the reaction, with the reference inhibitor, staurosporine. This reference compound was used to abolish kinase activity and generated the 0% kinase activity base-line. IC50 values were calculated by nonlinear regression analysis using the sigmoidal dose-response (variable slope) curve fit on XLFit version 5.3 (ID Business Solutions).
Human Axl (residues H473-A894 with Q764R, 161 nM) was incubated with 8 mM MOPS pH 7.0, 0.2 mM EDTA, 250 μM KKSRGDYMTMQIG (SEQ ID NO. 43), 10 mM magnesium acetate and 10 μM [γ-33P-ATP]. The reaction was initiated by the addition of the Mg/ATP mix. After incubation for 40 minutes at room temperature, the reaction was stopped by the addition of phosphoric acid to a concentration of 0.5%. A reaction aliquot of 10 μL was then spotted onto a P30 filtermat and washed four times for 4 minutes in 0.425% phosphoric acid and once in methanol prior to drying and scintillation counting. Incorporated ^33P was measured using the Wallac Microbeta scintillation counter (Perkin Elmer).

In the next test the target is Met (Homo sapiens (Human), UniProt P08581). The test can be described thus: Human Met kinase assay (33P radiometric, KinaseProfiler). Conditions: 10 μM ATP, read-out: c-Met IC50. The method, then: as §1
Human Met (residues R974-S1390 with A1209G and V1290L, 3.4 nM) was incubated with 8 mM MOPS pH 7.0, 0.2 mM EDTA, 250 µM KKKGQEEEYVFIE (SEQ ID NO. 45), 1 mM sodium orthovanadate, 5 mM […], 10 mM magnesium acetate, and 10 μM [γ-33P-ATP]. The reaction was initiated by the addition of the Mg/ATP mix. After incubation for 40 minutes at room temperature, the reaction was stopped by the addition of phosphoric acid to a concentration of 0.5%. A reaction aliquot of 10 μL was then spotted onto a P30 filtermat and washed four times for 4 minutes in 0.425% phosphoric acid and once in methanol prior to drying and scintillation counting. Incorporated 33P was measured using the Wallac Microbeta scintillation counter (Perkin Elmer).

A further test addresses Mer (Homo sapiens (Human), UniProt Q12866). The test can be described thus: Human Mer kinase assay (33P radiometric, KinaseProfiler). The note with it: 10 μM ATP. The method, then:
as §1
Human Mer (residues R557-E882 with H628Q and R794A, 0.7 nM) was incubated with 8 mM MOPS pH 7.0, 0.2 mM EDTA, 30 mM NaCl, 250 μM GGMEDIYFEFMGGKKK (SEQ ID NO. 44), 10 mM magnesium acetate, and 10 μM [γ-33P-ATP]. The reaction was initiated by the addition of the Mg/ATP mix. After incubation for 40 minutes at room temperature, the reaction was stopped by the addition of phosphoric acid to a concentration of 0.5%. A reaction aliquot of 10 μL was then spotted onto a P30 filtermat and washed four times for 4 minutes in 0.425% phosphoric acid and once in methanol prior to drying and scintillation counting. Incorporated 33P was measured using the Wallac Microbeta scintillation counter (Perkin Elmer).

Chain of Mer (Q12866 557-882): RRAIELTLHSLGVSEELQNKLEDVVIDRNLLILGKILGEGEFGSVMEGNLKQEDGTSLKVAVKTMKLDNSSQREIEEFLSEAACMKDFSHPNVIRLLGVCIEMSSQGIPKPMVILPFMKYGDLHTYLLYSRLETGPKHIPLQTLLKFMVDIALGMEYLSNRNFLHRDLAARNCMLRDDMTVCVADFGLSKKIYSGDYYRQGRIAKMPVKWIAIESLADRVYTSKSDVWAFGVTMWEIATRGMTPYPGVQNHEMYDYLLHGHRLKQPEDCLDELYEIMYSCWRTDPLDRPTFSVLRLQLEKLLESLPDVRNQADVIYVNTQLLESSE
Chain of Human Axl (P30530 473-894 Q764R): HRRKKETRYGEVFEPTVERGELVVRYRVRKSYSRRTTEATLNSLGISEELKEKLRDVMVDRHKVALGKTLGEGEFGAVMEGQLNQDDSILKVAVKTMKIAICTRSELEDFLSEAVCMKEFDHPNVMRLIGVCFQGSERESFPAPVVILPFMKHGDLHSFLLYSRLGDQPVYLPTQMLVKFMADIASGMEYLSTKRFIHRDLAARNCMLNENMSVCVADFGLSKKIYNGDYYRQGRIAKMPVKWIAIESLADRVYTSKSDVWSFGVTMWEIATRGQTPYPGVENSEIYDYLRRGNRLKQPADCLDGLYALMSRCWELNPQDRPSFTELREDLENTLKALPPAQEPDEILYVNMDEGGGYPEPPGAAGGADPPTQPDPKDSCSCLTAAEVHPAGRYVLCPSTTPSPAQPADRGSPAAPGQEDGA

Take `O=C(Nc1ccc(F)cc1)C1(C(=O)Nc2ccc(Oc3ncnc4cc(Cl)cnc34)cc2)CC1` [Compound 12, 1-N-[4-(7-chloropyrido[3,2-d]pyrimidin-4-yl)oxyphenyl]-1-N′-(4-fluorophenyl)cyclo-propane-1,1-dicarboxamide]: the values for the 50% inhibitory concentration (IC50) on Human Axl, on Met and at Mer were more than 1000 nM, 100 to 1000 nM and 100 to 1000 nM, respectively.
For the molecule `O=C(Nc1ccc(F)cc1)C1(C(=O)Nc2ccc(Oc3ncnc4cc(Br)cnc34)cc2)CC1` [Compound 13, 1-N-[4-(7-bromopyrido[3,2-d]pyrimidin-4-yl)oxyphenyl]-1-N′-(4-fluorophenyl)cyclo-propane-1,1-dicarboxamide], the IC50 on Human Axl, at Met and against Mer was 100 to 1000 nM in each case.
Turning to `COc1cnc2c(Oc3ccc(NC(=O)C4(C(=O)Nc5ccc(F)cc5)CC4)cc3)ncnc2c1` [Compound 16, 1-N′-(4-fluorophenyl)-1-N-[4-(7-methoxy-pyrido[3,2-d]pyrimidin-4-yl)oxyphenyl]cyclo-propane-1,1-dicarboxamide], the IC50 at Human Axl fell in the range of 100 to 1000 nM; on Met, 10 to 100 nM; on Mer, 100 to 1000 nM.
As for `Cc1cc2ncnc(Oc3ccc(NC(=O)C4(C(=O)Nc5ccc(F)cc5)CC4)cc3)c2nc1C` [Compound 43, 1-N-[4-(6,7-dimethyl-pyrido[3,2-d]pyrimidin-4-yl)oxyphenyl]-1-N′-(4-fluorophenyl)cyclo-propane-1,1-dicarboxamide], the concentration for half-maximal inhibition (IC50) against Human Axl, on Met and against Mer was 100 to 1000 nM throughout.
Turning to `O=C(Nc1ccc(F)cc1)C1(C(=O)Nc2ccc(Oc3ncnc4cc5c(nc34)CCCC5)cc2)CC1` [Compound 52, 1-N′-(4-fluorophenyl)-1-N-[4-(6,7,8,9-tetrahydro-pyrimido[5,4-b]quinolin-4-yloxy)phenyl]cyclo-propane-1,1-dicarboxamide], the IC50 against Human Axl, at Met and against Mer was 100 to 1000 nM throughout.
For `COc1cc2ncnc(Oc3ccc(NC(=O)C4(C(=O)Nc5ccc(F)cc5)CC4)cc3)c2nc1C#N` [Compound 57, 1-N-[4-(6-cyano-7-methoxypyrido[3,2-d]pyrimidin-4-yl)oxyphenyl]-1-N′-(4-fluorophenyl)cyclopropane-1,1-dicarboxamide], the IC50 lay in the range of 100 to 1000 nM on Human Axl, 100 to 1000 nM on Met and 10 to 100 nM at Mer.
Regarding `O=C(Nc1ccc(F)cc1)C1(C(=O)Nc2ccc(Oc3ncnc4cnccc34)cc2)CC1` [Compound 85, 1-N′-(4-fluorophenyl)-1-N-(4-pyrido[3,4-d]pyrimidin-4-yloxyphenyl)cyclopropane-1,1-dicarboxamide], the IC50 at Human Axl, at Met and on Mer was 100 to 1000 nM each time.
As for `O=C(Nc1ccc(F)cc1)C1(C(=O)Nc2ccc(Oc3ncnc4cnc(Cl)cc34)cc2)CC1` [Compound 88, 1-N-[4-(6-chloropyrido[3,4-d]pyrimidin-4-yl)oxy-phenyl]-1-N′-(4-fluoro-phenyl)cyclopropane-1,1-dicarboxamide], the IC50 at Human Axl was 100 to 1000 nM; at Met it was more than 1000 nM; against Mer it was 100 to 1000 nM.
As to `O=C(Nc1ccc(F)cc1)C1(C(=O)Nc2ccc(Oc3ncnc4ccncc34)cc2)CC1` [Compound 95, 1-N′-(4-fluorophenyl)-1-N-(4-pyrido[4,3-d]pyrimidin-4-yloxyphenyl)cyclo-propane-1,1-dicarboxamide], the IC50 against Human Axl, at Met and against Mer was 100 to 1000 nM in each case.
With `O=C(Nc1ccc(F)cc1)C1(C(=O)Nc2ccc(Oc3ncnc4cc(Cl)ncc34)cc2)CC1` [Compound 101, 1-N-[4-(7-chloropyrido[4,3-d]pyrimidin-4-yl)oxy-phenyl]-1-N′-(4-fluorophenyl)cyclo-propane-1,1-dicarboxamide], the IC50 against Human Axl, at Met and at Mer was 100 to 1000 nM each time.
As for `N#Cc1ccc2ncnc(Oc3ccc(NC(=O)C4(C(=O)Nc5ccc(F)cc5)CC4)cc3)c2c1` [Compound 106, 1-N-[4-(6-cyanoquinazolin-4-yl)oxyphenyl]-1-N′-(4-fluorophenyl)cyclopropane-1,1-dicarboxamide], the results for the IC50 on Human Axl, at Met and against Mer were more than 1000 nM, more than 1000 nM and 100 to 1000 nM, respectively.

Usually IC50 stands for the concentration that gives 50% inhibition.

(Values after patent publication US11708367B2, “Compounds for the treatment of kinase-dependent disorders” (Exelixis, Inc., priority 2018, dated 2023).)
